Data from paper PMC7498612, “A rationally designed bicyclic peptide remodels Aβ42 aggregation in vitro and reduces its toxicity in a worm model of Alzheimer’s disease” (Scientific Reports, 2020).
Where a SMILES comes first, the peptide text is derived from it.

Legend:
[1] = tested on: N2 worms; assay: C. elegans N2 control worms motility / fitness; assay type: in vivo; settings: same concentration of DesBP (40 μM); compared to effect on Aβ worms
Source text: We thus administered DesBP to Aβ worms at day 4 (D4) of adulthood, when Aβ42 aggregates are already formed, and paralysis is ongoing, and compared the resulting effects of the addition of DesBP to those observed in a control worm model, N2 (see “Materials and methods” section). […] On the other hand, the effects of the same concentration of DesBP to control N2 worms were negligible when compared to the effect observed on Aβ worms (Supplementary Fig. 12).
Media Standard conditions were used for the propagation of C. elegans. Briefly, the animals were synchronized by hypochlorite bleaching, hatched overnight in M9 (3 g/l KH2PO4, 6 g/l Na2HPO4, 5 g/l NaCl, […]) buffer, and subsequently cultured at 20 °C on nematode growth medium (NGM) (CaCl2 1 mM, MgSO4 1 mM, cholesterol 5 µg/ml, […] pH 6, Agar 17 g/L, NaCl 3 g/l, casein 7.5 g/l) plates seeded with the E. coli strain OP50. Saturated cultures of OP50 were grown by inoculating 50 mL of LB medium (tryptone 10 g/l, NaCl 10 g/l, yeast extract 5 g/l) with OP50 and incubating the culture for 16 h at 37 °C. NGM plates were seeded with bacteria by adding 350 µl of saturated OP50 to each plate and leaving the plates at 20 °C for 2–3 days. On day 3 after synchronization, the animals were placed on NGM plates containing 5-fluoro-2′deoxy-uridine (FUDR) (75 μM, unless stated otherwise) to inhibit the growth of offspring. […]

[2] = target: T1, Aβ42 monomers (Homo sapiens, UniProt P05067); assay: Bio-layer interferometry (BLI) binding of DesBP to sensor-coupled Aβ42 monomers; settings: DesBP 50 and 100 μM, 30 °C
T1 construct: the 42-residue form of the amyloid β peptide (Aβ42)
Procedure: To test for direct peptide-peptide interaction, biolayer interferometry (BLI) was performed on the Octet RED96 System (ForteBio, Menlo Park, USA). DesBP was used as interaction partner for sensor-coupled Aβ42. Coupled sensors were first dipped into ForteBio kinetics buffer (PBS, 0.1% BSA, 0.02% Tween20 and 0.05% sodium azide, pH 7.4) to establish a stable baseline, then into different concentrations of DesBP and finally in pure kinetics buffer again to monitor dissociation. Both association and dissociation processes were monitored at 30 °C over 50 and 200 s, respectively. In the data analysis, all curves were globally fit with a 1:1 binding model.

[3] = tested on: islet amyloid polypeptide, Aβ and α-synuclein; settings: cited from earlier work
Source text: In this study, we apply this design strategy to generate a bicyclic peptide capable of binding Aβ42 and of interfering with its aggregation process. The aggregation of Aβ42 is a complex process resulting from the combination of different microscopic steps and involving a variety of molecular species[35],[36]. […] Therefore, some therapeutic strategies aim at decreasing the concentrations of these oligomeric species by delaying or preventing their formatio ...

[4] = tested on: Aβ42; assay: ThT fluorescence aggregation kinetics of Aβ42; assay type: biochemical; settings: ThT assay
Procedure: In order to investigate the effects of DesBP on the aggregation of Aβ42, we carried out in vitro aggregation assays using thioflavin T (ThT) as an amyloid-specific fluorescent probe[63],[64]. We monitored fibril formation for Aβ42 at a concentration of 2 µM in the absence and presence of a range of concentrations (0.25–16 fold excess) of DesBP at 37 °C under quiescent conditions, using a highly reproducible protocol previously described. We then validated our results by means of far-UV circular dichroism (CD) and atomic force microscopy (AFM).
Monomeric Aβ42 peptide solutions were prepared by dissolving the lyophilized peptide in 6 M GuHCl. A Superdex 75 10/300 GL column (GE Healthcare) was used to purify Aβ42 monomers from Aβ42 oligomers and salt with a flow rate of 0.5 ml/min, and eluted in 20 mM sodium phosphate buffer (pH 8) with 200 μM EDTA. By collecting the centres of the peaks, the monomeric Aβ42 concentrations were determined from the integrated peak area with ε280 = 1,495 L mol^−1 cm^−1. Aβ42 monomers were then diluted to the target concentration with buffer and 20 μM ThT was added from a 1 mM stock. […] Assays were carried out at 37 °C under quiescent conditions in a plate reader (Fluostar Optima; BMG Labtech). ThT fluorescence was measured through the bottom of the plate with 440 nm excitation and 480 nm emission filters, with five repeats per sample. […]

CC[C@H](C)[C@@H]1NC(=O)CNC(=O)[C@H](CC(C)C)NC(=O)[C@H](CCCCN)NC(=O)[C@@H](NC(=O)[C@H](C)NC(=O)[C@H](C)NC(=O)[C@@H](N)CCCNC(=N)N)CSCc2cc3cc(c2)CSC[C@H](NC(=O)[C@H](C)NC(=O)[C@H](CCCCN)NC1=O)C(=O)N[C@@H]([C@@H](C)O)C(=O)N[C@@H](CO)C(=O)N[C@@H](C(C)C)C(=O)N[C@@H](Cc1ccc(O)cc1)C(=O)N[C@@H](Cc1c[nH]cn1)C(=O)N[C@@H](C)C(=O)N[C@H](C(=O)NCC(=O)NCC(=O)N[C@@H](CCCCN)C(=O)N[C@@H](CCCNC(=N)N)C(=O)N[C@@H](CCCNC(=N)N)C(=O)O)CSC3 [DesBP] (HELM PEPTIDE1{R.A.A.C.K.L.G.I.K.A.C.T.S.V.Y.H.A.C.G.G.K.R.R}|CHEM1{[c1c(C[*:1])cc(C[*:3])cc1C[*:2]]}$PEPTIDE1,CHEM1,4:R3-1:R1|PEPTIDE1,CHEM1,11:R3-1:R2|PEPTIDE1,CHEM1,18:R3-1:R3$$$V2.0)
effect on control N2 worms [1]: negligible
koff ([2]; pH 7.4, single-exponential fit, read-out: dissociation rate kd): 0.06 ± 0.002 s⁻¹
Kd ([2]; Octet RED96, kinetics buffer PBS, 0.1% BSA, 0.02% Tween20, pH 7.4, association 50 s, dissociation 200 s, global fit 1:1 binding model, read-out: dissociation constant (KD)): 640 ± 260 µM

O=C(O[C@@H]1Cc2c(O)cc(O)cc2O[C@@H]1c1cc(O)c(O)c(O)c1)c1cc(O)c(O)c(O)c1 [EGCG, epigallocatechin gallate]
modulation of aggregation process [3]: redirecting them towards the formation of non-toxic aggregates

Cc1cc(C)cc(C)c1 [TMB, 1,3,5-trimethylbenzene]
effect on Aβ42 aggregation (control compounds) ([4]; Supplementary Fig. 7): slightly delayed the nucleation step of Aβ42 aggregation
magnitude of ThT fluorescence (control compound) ([4]; Supplementary Fig. 7b): did not show significant changes on the magnitude of ThT fluorescence

CC(C)[C@@H](CC[C@@H](C)[C@H]1CC[C@H]2[C@@H]3[C@H](O)C[C@H]4C[C@@H](NCCCNCCCCNCCCN)CC[C@]4(C)[C@H]3CC[C@]12C)OS(=O)(=O)O [trodusquemine]
modulation of aggregation process [3]: redirecting them towards the formation of non-toxic aggregates
